Assay results taken from the supplement of paper PMC10307832.

Experiments:
Experiment in all cases: relative viability (nuclei count vs DMSO), 5 days (fraction); higher = more cells survive
[1] = compound: COc1cc2ncn(-c3cc(OCc4ccccc4C(F)(F)F)c(C(N)=O)s3)c2cc1OC + CC(=O)Nc1cccc(-n2c(=O)n(C3CC3)c(=O)c3c(Nc4ccc(I)cc4F)n(C)c(=O)c(C)c32)c1 [Trametinib] (partner 0.02 µM)
Summary of the method: (§1)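 Five library-drug doses in √10 steps were combined with a fixed anchor-drug dose, or a single drug was given alone, by pin tool to lung cancer cell lines in 1536-well plates the day after seeding. Nuclei were stained and counted after 5 days. Relative viability is the nuclei count in treated wells over that in vehicle wells, taken as the median of duplicate plates.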

[2] = compound: COc1cc2ncn(-c3cc(OCc4ccccc4C(F)(F)F)c(C(N)=O)s3)c2cc1OC + CC(C)C[C@H](NC(=O)[C@H](Cc1ccccc1)NC(=O)c1cnccn1)B(O)O [Bortezomib] (partner 0.002 µM)
Summary of the method: as §1

[3] = compound: COc1cc2ncn(-c3cc(OCc4ccccc4C(F)(F)F)c(C(N)=O)s3)c2cc1OC + CS(=O)(=O)N1CCN(Cc2cc3nc(-c4cccc5[nH]ncc45)nc(N4CCOCC4)c3s2)CC1 [Pictilisib] (partner 1 µM)
Summary of the method: as §1

[4] = compound: COc1cc2ncn(-c3cc(OCc4ccccc4C(F)(F)F)c(C(N)=O)s3)c2cc1OC + O=C(c1cc(Cc2n[nH]c(=O)c3ccccc23)ccc1F)N1CCN(C(=O)C2CC2)CC1 [Olaparib] (partner 8 µM)
Summary of the method: as §1

Cell Line	relative viability ([1]; first compound 0.05 µM)	relative viability ([1]; first compound 0.1581 µM)	relative viability ([1]; first compound 0.5 µM)	relative viability ([1]; first compound 1.581 µM)	relative viability ([1]; first compound 5 µM)	relative viability ([2]; first compound 0.05 µM)	relative viability ([2]; first compound 0.1581 µM)	relative viability ([2]; first compound 0.5 µM)	relative viability ([2]; first compound 1.581 µM)	relative viability ([2]; first compound 5 µM)	relative viability ([3]; first compound 0.05 µM)	relative viability ([3]; first compound 0.1581 µM)	relative viability ([3]; first compound 0.5 µM)	relative viability ([3]; first compound 1.581 µM)	relative viability ([3]; first compound 5 µM)	relative viability ([4]; first compound 0.05 µM)	relative viability ([4]; first compound 0.1581 µM)	relative viability ([4]; first compound 0.5 µM)	relative viability ([4]; first compound 1.581 µM)	relative viability ([4]; first compound 5 µM)
NCI-H2023	0.502	0.501	0.358	0.0995	0.0739	0.998	1.24	0.403	0.0876	0.0864	0.228	0.287	0.196	0.12	0.0888	0.416	0.392	0.16	0.0751	0.0692
NCI-H2085	0.332	0.614	0.421	0.221	0.2	0.968	1.11	0.796	0.529	0.362	0.47	0.45	0.463	0.273	0.273	0.658	0.721	0.481	0.367	0.306
NCI-H2087	0.239	0.196	0.143	0.0778	0.111	0.768	0.782	0.484	0.167	0.131	1.11	0.556	0.454	0.211	0.134	0.432	0.493	0.346	0.098	0.0728
NCI-H2126	0.535	0.582	0.478	0.27	0.205	1.16	1.16	1.03	0.398	0.314	0.462	0.517	0.477	0.254	0.229	0.813	0.86	0.449	0.238	0.241
NCI-H2228	0.409	0.268	0.188	0.116	0.136	1.01	0.849	0.208	0.182	0.18	0.331	0.423	0.237	0.165	0.303	0.224	0.721	0.201	0.157	0.194
NCI-H2347	0.287	0.28	0.299	0.268	0.282	1.1	0.861	0.543	0.372	0.479	0.689	0.435	0.503	0.394	0.375	0.491	0.569	0.504	0.513	0.471
NCI-H2405	0.672	0.412	0.47	0.367	0.311	1.02	0.492	0.835	0.401	0.557	0.512	0.265	0.458	0.366	0.27	0.795	0.809	0.326	0.312	0.331
NCI-H3122	0.209	0.213	0.143	0.135	0.155	1.05	0.951	0.709	0.183	0.227	0.578	0.269	0.282	0.212	0.184	0.682	0.585	0.149	0.141	0.146
PC-3 [JPC-3]	0.697	0.698	0.536	0.407	0.279	0.863	0.803	0.775	0.285	0.231	0.728	0.78	0.611	0.327	0.26	0.955	1.01	0.588	0.424	0.316
PC-14	0.555	0.727	0.281	0.053	0.0472	0.723	0.794	0.404	0.0771	0.0641	0.717	0.694	0.343	0.0295	0.0382	0.216	0.246	0.0786	0.0384	0.0696
RERF-LC-KJ	0.935	0.915	0.57	0.456	0.5	1.14	1.12	0.67	0.357	0.558	0.557	0.692	0.269		0.185	0.937	0.945	0.24	0.233	0.253
SK-LU-1	0.469	0.297	0.324	0.295	0.223	1.35	1.14	0.745	0.292	0.256	0.568	0.516	0.423	0.213	0.178	0.39	0.372	0.272	0.197	0.207
SW 1573	0.545	0.56	0.41	0.11	0.0977	0.975	1.2	0.867	0.157	0.565	0.529	0.377	0.367		0.176	0.442	0.428	0.188	0.103	0.119
UMC-11	0.543	0.195	0.194	0.156	0.12	0.634	0.596	0.119	0.131	0.0891	0.727	0.81	0.226	0.149	0.121	0.313	0.293	0.21	0.185	0.159
